# Laboratory results reported in patent US20030166001A1, “Toll-like receptor 3 signaling agonists and antagonists” (priority 2001, published 2003).
# In the oligonucleotide strings, read from the 5' end, every base follows the letter of its sugar. An asterisk marks phosphorothioate; unmarked linkages are phosphodiester. Other units and linkages are bracketed, terminal groups are in braces. A string of capitals states the bases alone. d = 2'-deoxy (DNA)
# Tests used:
# murine TLR9 [1] = target: T1, murine TLR9 (Mus musculus, UniProt Q9EQU3); test: 293 fibroblasts stably transfected with murine TLR9 and NF-κB-luciferase reporter, ODN stimulation; settings: for EC50: read-out: EC50 (concentration of the ligand stimulus that results in 50% maximal activation), NF-κB luciferase induction, stimulated for 16 hours, ODN titrated between 10 μM and 2 nM, FIG. 6; for course of activity (EC50) curves with time: ODN with less stable diester linkages
# T1 sequence (Q9EQU3 26-1032): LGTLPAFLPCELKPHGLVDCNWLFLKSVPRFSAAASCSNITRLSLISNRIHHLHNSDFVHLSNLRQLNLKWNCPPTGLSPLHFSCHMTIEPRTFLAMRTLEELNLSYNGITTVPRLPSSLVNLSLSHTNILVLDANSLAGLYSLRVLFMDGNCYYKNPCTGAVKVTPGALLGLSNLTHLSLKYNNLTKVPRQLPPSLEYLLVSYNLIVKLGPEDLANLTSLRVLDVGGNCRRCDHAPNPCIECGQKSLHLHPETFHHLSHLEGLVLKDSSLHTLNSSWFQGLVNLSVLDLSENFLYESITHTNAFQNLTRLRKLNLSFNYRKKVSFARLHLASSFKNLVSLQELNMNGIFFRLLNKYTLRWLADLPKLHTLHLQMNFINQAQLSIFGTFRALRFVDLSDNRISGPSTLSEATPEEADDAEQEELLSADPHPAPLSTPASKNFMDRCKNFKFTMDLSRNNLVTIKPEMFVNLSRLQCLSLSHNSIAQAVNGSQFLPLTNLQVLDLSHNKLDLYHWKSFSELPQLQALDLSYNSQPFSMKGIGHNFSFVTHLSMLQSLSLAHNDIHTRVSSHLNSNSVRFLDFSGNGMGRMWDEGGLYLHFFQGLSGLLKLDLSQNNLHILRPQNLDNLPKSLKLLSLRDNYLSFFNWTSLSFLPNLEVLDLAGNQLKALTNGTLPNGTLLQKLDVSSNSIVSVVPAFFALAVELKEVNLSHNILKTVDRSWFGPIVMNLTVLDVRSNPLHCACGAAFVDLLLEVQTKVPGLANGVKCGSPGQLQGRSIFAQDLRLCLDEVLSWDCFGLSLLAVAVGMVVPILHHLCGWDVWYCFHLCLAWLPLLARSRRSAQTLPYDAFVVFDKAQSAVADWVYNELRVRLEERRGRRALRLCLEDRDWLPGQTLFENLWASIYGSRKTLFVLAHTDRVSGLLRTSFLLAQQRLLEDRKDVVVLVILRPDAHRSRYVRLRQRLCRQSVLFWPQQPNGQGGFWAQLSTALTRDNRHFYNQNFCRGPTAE
# Description: (§1) Human 293 fibroblast cells stably transfected with murine TLR9 and an NF-κB-luciferase reporter were stimulated for 16 hours with the following fully phosphorothioated oligodeoxynucleotides (ODN):
# (§2) Concentration of the stimulus was titrated between 10 μM and 2 nM. […] EC50 is defined as the concentration of the ligand stimulus that results in 50% maximal activation.
# (§3) A family of stimulation curves was determined at various times of assay incubation between 1 and 24 hours. The EC50 was determined for each ligand at each time point.
# murine TLR9 [2] = target: T1, murine TLR9
# Description: as §1, §2, §3
# hTLR9 = target: T2, hTLR9 (Homo sapiens, UniProt Q9NR96); test: 293 fibroblasts transiently transfected with hTLR9, NF-κB-luc readout or IL-8 ELISA; type: cell-based; settings: CpG-ODN 2006 2 μM, LPS 100 ng/ml; 8 h luciferase, 48 h IL-8; FIG. 1
# T2 construct: expressed in transfected cells; host or cells: human 293 fibroblasts (ATCC CRL-1573), transient transfection by the calcium phosphate method
# T2 sequence (Q9NR96 26-1032): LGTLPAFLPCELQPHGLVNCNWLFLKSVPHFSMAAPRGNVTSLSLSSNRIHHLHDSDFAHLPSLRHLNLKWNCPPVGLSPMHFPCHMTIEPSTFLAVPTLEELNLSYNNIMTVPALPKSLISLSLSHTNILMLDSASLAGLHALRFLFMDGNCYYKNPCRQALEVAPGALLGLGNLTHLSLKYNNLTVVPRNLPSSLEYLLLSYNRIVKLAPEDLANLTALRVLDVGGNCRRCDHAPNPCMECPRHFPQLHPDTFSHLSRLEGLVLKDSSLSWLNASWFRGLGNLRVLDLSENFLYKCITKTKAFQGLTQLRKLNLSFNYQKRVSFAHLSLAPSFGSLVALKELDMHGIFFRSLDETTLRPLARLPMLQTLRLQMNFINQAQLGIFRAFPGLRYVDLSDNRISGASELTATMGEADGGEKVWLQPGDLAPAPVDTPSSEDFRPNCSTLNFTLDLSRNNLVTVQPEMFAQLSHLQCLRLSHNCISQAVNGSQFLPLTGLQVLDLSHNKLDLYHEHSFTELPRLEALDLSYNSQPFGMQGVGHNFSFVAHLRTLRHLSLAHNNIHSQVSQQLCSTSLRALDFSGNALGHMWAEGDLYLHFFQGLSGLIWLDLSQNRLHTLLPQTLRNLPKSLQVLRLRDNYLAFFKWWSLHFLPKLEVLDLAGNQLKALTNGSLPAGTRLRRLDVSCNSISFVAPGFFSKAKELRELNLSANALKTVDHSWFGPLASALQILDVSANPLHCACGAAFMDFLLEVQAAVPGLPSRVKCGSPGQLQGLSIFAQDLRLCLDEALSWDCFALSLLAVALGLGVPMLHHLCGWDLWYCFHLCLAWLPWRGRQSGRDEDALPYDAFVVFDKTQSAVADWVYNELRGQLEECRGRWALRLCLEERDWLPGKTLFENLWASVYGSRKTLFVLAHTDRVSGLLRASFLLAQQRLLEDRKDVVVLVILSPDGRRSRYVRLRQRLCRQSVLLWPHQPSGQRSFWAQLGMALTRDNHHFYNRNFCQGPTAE
# Excerpt: Methods for cloning murine and human TLR9 have been described in pending U.S. patent application Ser. No. 09/954,987 and corresponding published PCT application PCT/US01/29229, both filed Sep. 17, 2001, the contents of which are incorporated by reference. Human TLR9 cDNA and murine TLR9 cDNA in pT-Adv vector (from Clonetech) were individually cloned into the expression vector pcDNA3.1(−) from Invitrogen using the EcoRI site. Utilizing a “gain of function” assay it was possible to reconstitute human TLR9 (hTLR9) and murine TLR9 (mTLR9) signaling in CpG-DNA non-responsive human 293 fibroblasts (ATCC, CRL-1573). The expression vectors mentioned above were transfected into 293 fibroblast cells using the calcium phosphate method.
# Since NF-κB activation is central to the IL-1/TLR signal transduction pathway (Medzhitov R et al. (1998) Mol Cell 2:253-258 (1998); Muzio M et al. (1998) J Exp Med 187:2097-101), cells were transfected with hTLR9 or co-transfected with hTLR9 and an NF-κB-driven luciferase reporter construct. […] After stimulus with CpG-ODN (2006, 2 μM, […], SEQ ID NO:15), GpC-ODN (2006-GC, 2 μM, […], SEQ ID NO:16), LPS (100 ng/ml) or media, NF-κB activation by luciferase readout (8 h, FIG. 1A) or IL-8 production by ELISA (48 h, FIG. 1B) were monitored. […]
# [3] = assay incubation between 1 and 24 hours, FIG. 7
substance,measurement,setting,value
T*C*C*A*T*G*A*C*G*T*T*T*T*T (dT*dC*dC*dA*dT*dG*dA*dC*dG*dT*dT*dT*dT*dT) [ODN 5897],EC50,murine TLR9 [1],1220 nM
T*C*C*A*T*G*A*C*G*T*T*T*T*T*G*A*T*G*T*T (TCCATGACGTTTTTGATGTT; chemistry not given here) [ODN 5890],maximal activity (maximal fold induction) versus time,murine TLR9 [2],less efficient at delivering high activity
same,affinity of ligand/receptor interaction from EC50 versus time curves,murine TLR9 [1]; [3],higher affinity
same,EC50,murine TLR9 [1],42 nM
T*C*C*A*T*G*A*C_G_T*T*T*T*T*G*A*T_G*T*T [ODN 5902],course of activity (EC50) curves with time,murine TLR9 [1]; [3],turn upward with time
T*C*G*T*C*G*T*T*T*T*G*T*C*G*T*T*T*T*G*T*C*G*T*T [ODN 2006],"response of cells expressing hTLR9 (NF-κB activation by luciferase readout, IL-8 production by ELISA)",hTLR9,responded
T*C*G*T*C*G*T*T*T*T_G_T_C_G_T*T*T*T*G*T*C*G*T*T [ODN 5497],course of activity (EC50) curves with time,murine TLR9 [1]; [3],turn upward with time
T*C_G*T*C_G*T*T*T*T_G*T*C_G*T*T*T*T*G*T*C_G*T*T [ODN 5746],course of activity (EC50) curves with time,murine TLR9 [1]; [3],turn upward with time
lipopolysaccharide [LPS],"response of cells expressing hTLR9 (NF-κB activation by luciferase readout, IL-8 production by ELISA)",hTLR9,not
